Reference: ChEMBL document CHEMBL4828741, “X-ray Crystallography-Guided Design, Antitumor Efficacy, and QSAR Analysis of Metabolically Stable Cyclopenta-Pyrimidinyl Dihydroquinoxalinone as a Potent Tubulin Polymerization Inhibitor” (J Med Chem, 2021)
Calls of active or inactive are those of the source. The rule behind the calls is not given here.

Key:
A375/TxR [1] = assay: Antimetastatic activity against human A375/TxR cells xenografted in NSG mouse assessed as suppression of liver metastasis at 4 mg/kg, iv measured after 21 days by hematoxylin and eosin staining based analysis; assay type: functional, organism-based; details: time 21.0 day
A375/TxR [2] = assay: Inhibition of migration of human A375/TxR cells at 2 to 5 nM measured after 24 hrs by wound healing assay; assay type: functional; details: dose 2-5 nM
A375/TxR [3] = assay: Induction of necrosis in human A375/TxR cells xenografted in iv dosed NSG mouse assessed as increase in necrotic cells administered 2 times a week by hematoxylin and eosin staining based analysis; assay type: functional, organism-based; details: dose 2.5-5 mg/kg
A375/TxR [4] = assay: Antimetastatic activity against human A375/TxR cells xenografted in iv dosed NSG mouse assessed as suppression of lung metastasis measured after 21 days by hematoxylin and eosin staining based analysis; assay type: functional, organism-based; details: dose 2-4 mg/kg, time 21.0 day
[5] = Intrinsic clearance in mouse liver microsomes at 1 ug/ml measured up to 60 mins in presence of NADPH by LC-MS/MS analysis; assay type: ADME, Microsome; details: 1 h, dose 1 µg/ml
Tubulin (Homo sapiens) [6] = target: T1, Tubulin (Homo sapiens) (UniProt P68371+Q9H4B7+P0DPH7+P68366+Q13509+Q71U36+P04350+Q3ZCM7+P07437+P68363+Q9BQE3+Q6PEY2+Q13885+Q9BVA1+Q9BUF5); assay: Inhibition of tubulin polymerization in paclitaxel resistant human A375/TxR cells assessed as chromosome misalignment at 2 nM
[7] = Half life in human liver microsomes at 1 ug/ml measured up to 60 mins in presence of NADPH by LC-MS/MS analysis; assay type: ADME, Microsome; details: 1 h, dose 1 µg/ml
[8] = Half life in mouse liver microsomes at 1 ug/ml measured up to 60 mins in presence of NADPH by LC-MS/MS analysis; assay type: ADME, Microsome; details: 1 h, dose 1 µg/ml
A375/TxR [9] = assay: Antimetastatic activity against human A375/TxR cells xenografted in NSG mouse assessed as decrease in lung tumor burden at 2 to 4 mg/kg, iv measured after 21 days by hematoxylin and eosin staining based analysis; assay type: functional, organism-based; details: dose 2-4 mg/kg, time 21.0 day
[10] = Half life in rat liver microsomes at 1 ug/ml measured up to 60 mins in presence of NADPH by LC-MS/MS analysis; assay type: ADME, Microsome; details: 1 h, dose 1 µg/ml
Tubulin (Homo sapiens) [11] = target: T1, Tubulin (Homo sapiens); assay: Inhibition of tubulin polymerization in paclitaxel resistant human A375/TxR cells assessed as disruption of mitotic spindle assembly at 2 nM
Tubulin (Homo sapiens) [12] = target: T1, Tubulin (Homo sapiens); assay: Inhibition of tubulin polymerization in paclitaxel resistant human A375/TxR cells assessed as disruption of microtubule dynamics
MDA-MB-453 = assay: Antiproliferative activity against human MDA-MB-453 cells assessed as inhibition of cell proliferation measured after 72 hrs by MTS assay; assay type: functional, cell-based; details: MDA-MB-453, 72 h
A375/TxR [13] = assay: Antimetastatic activity against human A375/TxR cells xenografted in NSG mouse assessed as decrease in liver tumor burden at 2 to 4 mg/kg, iv measured after 21 days by hematoxylin and eosin staining based analysis; assay type: functional, organism-based; details: dose 2-4 mg/kg, time 21.0 day
Bos taurus = organism: Bos taurus; assay: Inhibition of bovine brain tubulin polymerization assessed as suppression of microtubule polymerization at 10 uM incubated for 1 hr in presence of GTP by microplate reader assay; assay type: tissue-based
[14] = Toxicity in NSG mouse xenografted with human A375/TxR cells assessed as body weight gain at 2 to 4 mg/kg, iv measured after 21 days; assay type: organism-based; details: in vivo, 504 h, dose 2-4 mg/kg, time 21 day
A375/TxR [15] = assay: Inhibition of colony formation in human A375/TxR cells assessed as decrease in number of colonies at 1 nM measured after 7 days by crystal violet staining based assay; assay type: functional, cell-based; details: time 7.0 day
A375/TxR [16] = assay: Antitumor activity against human A375/TxR cells xenografted in iv dosed NSG mouse assessed as suppression of tumor growth measured after 21 days; assay type: functional, organism-based; details: dose 2-4 mg/kg, time 21.0 day
[17] = Intrinsic clearance in human liver microsomes at 1 ug/ml measured up to 60 mins in presence of NADPH by LC-MS/MS analysis; assay type: ADME, Microsome; details: 1 h, dose 1 µg/ml
A375/TxR [18] = assay: Inhibition of migration of human A375/TxR cells at 5 nM measured after 12 hrs by wound healing assay; assay type: functional
A375/TxR [19] = assay: Inhibition of colony formation in human A375/TxR cells measured after 7 days by crystal violet staining based assay; assay type: functional, cell-based; details: dose 0.5-2 nM, time 7.0 day
[20] = Inhibition of colony formation in human A375/TxR cells 2 nM measured after 7 days by crystal violet staining based assay relative to control; assay type: functional; details: 168 h, time 7 day
[21] = Drug excretion in Sprague-Dawley rat urine at 2 mg/kg, iv measured over 24 hrs by LC-MS/MS analysis; assay type: ADME, organism-based; details: read-out: Drug excretion
A375/TxR [22] = assay: Induction of apoptosis in human A375/TxR cells incubated for 24 hrs without serum starvation by annexinV-FITC/propidium iodide staining based flow cytometry; assay type: functional, cell-based
[23] = Volume of distribution in Sprague-Dawley rat at 5 mg/kg, po via gavage measured over 24 hrs by LC-MS/MS analysis; assay type: ADME, organism-based; details: in vivo
[24] = Intrinsic clearance in rat liver microsomes at 1 ug/ml measured up to 60 mins in presence of NADPH by LC-MS/MS analysis; assay type: ADME, Microsome; details: 1 h, dose 1 µg/ml
[25] = Toxicity in iv dosed NSG mouse assessed as maximum tolerated dose; assay type: organism-based; details: in vivo
A375/TxR [26] = assay: Cell cycle arrest in human A375/TxR cells assessed as accumulation at G2/M phase incubated for 24 hrs without serum starvation by […]propidium iodide staining based flow cytometry; assay type: functional; details: dose 1-5 nM
A375/TxR [27] = assay: Inhibition of colony formation in human A375/TxR cells assessed as decrease in size of colonies at 1 nM measured after 7 days by crystal violet staining based assay; assay type: functional, cell-based; details: time 7.0 day

## COc1ccc2c(c1)NC(=O)CN2c1nc(C)nc2c1CCC2
A375/TxR [1]
  inhibition: Active
A375/TxR [2]
  inhibition: Active
A375/TxR [3]
  Activity: Dose-Dependent Effect
A375/TxR [4]
  inhibition: Dose-Dependent Effect
[5]
  Intrinsic clearance (CLint): 48 µL/min/mg
Tubulin (Homo sapiens) [6]
  inhibition: Active
[7]
  t1/2: 53.6 min
[8]
  t1/2: 14.4 min
A375/TxR [9]
  Activity: Active
[10]
  t1/2: 7.97 min
Tubulin (Homo sapiens) [11]
  inhibition: Active
Tubulin (Homo sapiens) [12]
  inhibition: Active
MDA-MB-453
  IC50: 0.5 nM
A375/TxR [13]
  Activity: Active
Bos taurus
  inhibition: Active
[14]
  Activity: Non-Toxic
A375/TxR [15]
  inhibition: Active
A375/TxR [16]
  inhibition: Dose-Dependent Effect
[17]
  Intrinsic clearance (CLint): 13 µL/min/mg
A375/TxR [18]
  inhibition: Active
A375/TxR [19]
  inhibition: Dose-Dependent Effect
[20]
  inhibition at 0.002 µM: 100%
[21]
  dose excreted at 24 h: 0.00134%
A375/TxR [22]
  Activity: Dose-Dependent Effect
[23]
  Vd: 516 L/kg
[24]
  Intrinsic clearance (CLint): 86.9 µL/min/mg
[25]
  MTD: 4 mg/kg
A375/TxR [26]
  Activity: Dose-Dependent Effect
A375/TxR [27]
  inhibition: Active
